The record followed here is ChEMBL document CHEMBL4402543, “Bioisosteric Development of Multitarget Nonsteroidal Anti-Inflammatory Drug-Carbonic Anhydrases Inhibitor Hybrids for the Management of Rheumatoid Arthritis” (J Med Chem, 2020).

Activity calls are given as the source filed them.

A short description of series [1]: Stability in PBS. It counts as physicochemical. Particulars: buffer.
Series [2] addresses COX1 (Prostaglandin G/H synthase 1) (Homo sapiens, UniProt P23219). Put plainly: Inhibition of COX1 in human platelet rich plasma in assessed as inhibition of ADP-induced platelet aggregation at 10 uM incubated for 5 mins by turbidimetry based Born's method relative to control.
Series [3] concerns Rattus norvegicus. Put plainly: Antihyperalgesic activity in Sprague-Dawley rat model of Complete freund's adjuvant-induced arthritis assessed as pain threshold of ipsilateral paw at 30 mg/kg, po starting from day 14 after CFA injection and measured at 15 mins by paw pressure test (reference value: 40.1 +/- 0.7 g). The series is classed as functional.
Series [4] deals with Rattus norvegicus. Put plainly: Antihyperalgesic activity in Sprague-Dawley rat model of Complete freund's adjuvant-induced arthritis assessed as pain threshold of ipsilateral paw at 30 mg/kg, po starting from day 14 after CFA injection and measured at 30 mins by paw pressure test (reference value: 40.1 +/- 0.7 g). It counts as functional.
In series [5] the test system is Rattus norvegicus. As to the kind of experiment: Antihyperalgesic activity in Sprague-Dawley rat model of Complete freund's adjuvant-induced arthritis assessed as pain threshold of ipsilateral paw at 30 mg/kg, po starting from day 14 after CFA injection and measured at 45 mins by paw pressure test (reference value: 40.1 +/- 0.7 g). The series is classed as functional.

In series [6] the test system is Rattus norvegicus. As to the kind of experiment: Antihyperalgesic activity in Sprague-Dawley rat model of Complete freund's adjuvant-induced arthritis assessed as increase in pain threshold of ipsilateral paw at 3 to 30 mg/kg, po starting from day 14 after CFA injection and measured at 0 to 60 mins by paw pressure test. It counts as functional, organism-based.
Series [7] concerns Rattus norvegicus. As to the kind of experiment: Antihyperalgesic activity in Sprague-Dawley rat model of Complete freund's adjuvant-induced arthritis assessed as effect on pain threshold of ipsilateral paw at 30 mg/kg, po starting from day 14 after CFA injection and measured at 60 mins by paw pressure test. It counts as functional, organism-based.
In series [8] the test system is Rattus norvegicus. Put plainly: Antihyperalgesic activity in Sprague-Dawley rat model of Complete freund's adjuvant-induced arthritis assessed as increase in pain threshold of ipsilateral paw at 10 mg/kg, po starting from day 14 after CFA injection and measured at 15 mins by paw pressure test. The series is classed as functional, organism-based.
In series [9] the test system is Rattus norvegicus. As to the kind of experiment: Antihyperalgesic activity in Sprague-Dawley rat model of Complete freund's adjuvant-induced arthritis assessed as increase in pain threshold of ipsilateral paw at 10 mg/kg, po starting from day 14 after CFA injection and measured at 30 mins by paw pressure test. The series is classed as functional.
Series [10] deals with Rattus norvegicus. Put plainly: Antihyperalgesic activity in Sprague-Dawley rat model of Complete freund's adjuvant-induced arthritis assessed as increase in pain threshold of ipsilateral paw at 10 mg/kg, po starting from day 14 after CFA injection and measured at 45 mins by paw pressure test. The series is classed as functional, organism-based.
In series [11] the test system is Rattus norvegicus. Put plainly: Antihyperalgesic activity in Sprague-Dawley rat model of Complete freund's adjuvant-induced arthritis assessed as pain threshold of ipsilateral paw at 3 mg/kg, po starting from day 14 after CFA injection and measured at 30 mins by paw pressure test (reference value: 40.1 +/- 0.7 g). It counts as functional.
Series [12] concerns Rattus norvegicus. As to the kind of experiment: Antihyperalgesic activity in Sprague-Dawley rat model of Complete freund's adjuvant-induced arthritis assessed as reduction in difference between weight burdened on contralateral and ipsilateral paw at 3 to 30 mg/kg, po starting from day 14 after CFA injection and measured at 0 to 60 mins incapacitance test. The series is classed as functional, organism-based.

Series [13] deals with Rattus norvegicus. As to the kind of experiment: Antihyperalgesic activity in Sprague-Dawley rat model of Complete freund's adjuvant-induced arthritis assessed as reduction in difference between weight burdened on contralateral and ipsilateral paw at 30 mg/kg, po starting from day 14 after CFA injection and measured at 15 to 45 mins incapacitance test. The series is classed as functional, organism-based.

For series [14], the system named is Rattus norvegicus. As to the kind of experiment: Antihyperalgesic activity in Sprague-Dawley rat model of Complete freund's adjuvant-induced arthritis assessed as reduction in difference between weight burdened on contralateral and ipsilateral paw at 10 mg/kg, po starting from day 14 after CFA injection and measured at 15 to 30 mins incapacitance test. It counts as functional, organism-based.

The test system of series [15] is Rattus norvegicus. As to the kind of experiment: Antihyperalgesic activity in Sprague-Dawley rat model of Complete freund's adjuvant-induced arthritis assessed as reduction in difference between weight burdened on contralateral and ipsilateral paw at 3 mg/kg, po starting from day 14 after CFA injection and measured at 30 mins incapacitance test. It counts as functional, organism-based.

Series [16] has as its system Rattus norvegicus. Put plainly: Antihyperalgesic activity in Sprague-Dawley rat model of Complete freund's adjuvant-induced arthritis assessed as reduction in difference between weight burdened on contralateral and ipsilateral paw at 10 mg/kg, po starting from day 14 after CFA injection and measured at 30 mins incapacitance test. It counts as functional, organism-based.

A short description of series [17]: Half life in human plasma by LC-MS/MS analysis. It counts as ADME, cell-free.
Series [18] in a line: Half life in Sprague-Dawley rat plasma by LC-MS/MS analysis. It counts as ADME, cell-free.
The target of series [19] is Carbonic anhydrase 4 (Homo sapiens) (UniProt P22748).
Carbonic anhydrase 4 (Homo sapiens), sequence (P22748 whole entry): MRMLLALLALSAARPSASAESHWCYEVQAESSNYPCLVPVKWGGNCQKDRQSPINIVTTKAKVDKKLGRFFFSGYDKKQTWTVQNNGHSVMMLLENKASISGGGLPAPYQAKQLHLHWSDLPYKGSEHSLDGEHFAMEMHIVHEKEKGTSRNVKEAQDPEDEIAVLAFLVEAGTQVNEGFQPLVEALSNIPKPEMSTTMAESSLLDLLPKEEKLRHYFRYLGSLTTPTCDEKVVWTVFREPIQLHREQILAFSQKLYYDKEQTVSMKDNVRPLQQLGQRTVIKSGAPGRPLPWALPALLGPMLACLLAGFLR
Description: Inhibition of human CA4 pre-incubated for 6 hrs by stopped- flow CO2 hydrase assay method based Cheng-Prusoff equation analysis
Series [20] concerns the target Carbonic anhydrase 7 (Homo sapiens) (UniProt P43166).
Description: Inhibition of human CA7 pre-incubated for 6 hrs by stopped- flow CO2 hydrase assay method based Cheng-Prusoff equation analysis
The target in series [21] is Carbonic anhydrase 1 (Homo sapiens) (UniProt P00915).
Carbonic anhydrase 1 (Homo sapiens), sequence (P00915 2-261 limits assumed): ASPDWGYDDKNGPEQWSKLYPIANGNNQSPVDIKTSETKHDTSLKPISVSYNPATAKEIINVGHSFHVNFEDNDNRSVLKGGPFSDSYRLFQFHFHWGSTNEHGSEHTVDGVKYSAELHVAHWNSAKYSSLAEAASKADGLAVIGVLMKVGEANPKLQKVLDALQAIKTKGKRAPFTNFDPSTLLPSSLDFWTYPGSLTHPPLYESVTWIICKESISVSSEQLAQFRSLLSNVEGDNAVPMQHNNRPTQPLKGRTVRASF
Description: Inhibition of human CA1 pre-incubated for 6 hrs by stopped- flow CO2 hydrase assay method based Cheng-Prusoff equation analysis
In series [22] the target is Carbonic anhydrase 2 (Homo sapiens) (UniProt P00918).
Description: Inhibition of human CA2 pre-incubated for 6 hrs by stopped- flow CO2 hydrase assay method based Cheng-Prusoff equation analysis
In series [23] the target is Carbonic anhydrase 9 (Homo sapiens) (UniProt Q16790).
Description: Inhibition of human CA9 pre-incubated for 6 hrs by stopped- flow CO2 hydrase assay method based Cheng-Prusoff equation analysis
Series [24] concerns the target Carbonic anhydrase 12 (Homo sapiens) (UniProt O43570).
Description: Inhibition of human CA12 pre-incubated for 6 hrs by stopped- flow CO2 hydrase assay method based Cheng-Prusoff equation analysis
The test system of series [25] is Rattus norvegicus. Put plainly: Antihyperalgesic activity in Sprague-Dawley rat model of Complete freund's adjuvant-induced arthritis assessed as pain threshold of ipsilateral paw at 13.4 mg/kg, po starting from day 14 after CFA injection and measured at 15 mins by paw pressure test (reference value: 40.1 +/- 0.7 g). The series is classed as functional.
In series [26] the test system is Rattus norvegicus. Put plainly: Antihyperalgesic activity in Sprague-Dawley rat model of Complete freund's adjuvant-induced arthritis assessed as pain threshold of ipsilateral paw at 13.4 mg/kg, po starting from day 14 after CFA injection and measured at 30 mins by paw pressure test (reference value: 40.1 +/- 0.7 g). The series is classed as functional.
Series [27] has as its system Rattus norvegicus. As to the kind of experiment: Antihyperalgesic activity in Sprague-Dawley rat model of Complete freund's adjuvant-induced arthritis assessed as reduction in difference between weight burdened on contralateral and ipsilateral paw at 13.4 mg/kg, po starting from day 14 after CFA injection and measured at 15 mins incapacitance test. It counts as functional, organism-based.

The subject of series [28] is Rattus norvegicus. As to the kind of experiment: Antihyperalgesic activity in Sprague-Dawley rat model of Complete freund's adjuvant-induced arthritis assessed as increase in pain threshold of ipsilateral paw at 30 mg/kg, po starting from day 14 after CFA injection and measured at 0 to 60 mins by paw pressure test. The series is classed as functional, organism-based.

A short description of series [29]: Solubility of the compound. It counts as physicochemical.
For series [30], the system named is Rattus norvegicus. As to the kind of experiment: Antihyperalgesic activity in Sprague-Dawley rat model of Complete freund's adjuvant-induced arthritis assessed as reduction in difference between weight burdened on contralateral and ipsilateral paw at 30 mg/kg, po starting from day 14 after CFA injection and measured at 30 mins incapacitance test. The series is classed as functional, organism-based.

COX1 (Prostaglandin G/H synthase 1), sequence (P23219 whole entry): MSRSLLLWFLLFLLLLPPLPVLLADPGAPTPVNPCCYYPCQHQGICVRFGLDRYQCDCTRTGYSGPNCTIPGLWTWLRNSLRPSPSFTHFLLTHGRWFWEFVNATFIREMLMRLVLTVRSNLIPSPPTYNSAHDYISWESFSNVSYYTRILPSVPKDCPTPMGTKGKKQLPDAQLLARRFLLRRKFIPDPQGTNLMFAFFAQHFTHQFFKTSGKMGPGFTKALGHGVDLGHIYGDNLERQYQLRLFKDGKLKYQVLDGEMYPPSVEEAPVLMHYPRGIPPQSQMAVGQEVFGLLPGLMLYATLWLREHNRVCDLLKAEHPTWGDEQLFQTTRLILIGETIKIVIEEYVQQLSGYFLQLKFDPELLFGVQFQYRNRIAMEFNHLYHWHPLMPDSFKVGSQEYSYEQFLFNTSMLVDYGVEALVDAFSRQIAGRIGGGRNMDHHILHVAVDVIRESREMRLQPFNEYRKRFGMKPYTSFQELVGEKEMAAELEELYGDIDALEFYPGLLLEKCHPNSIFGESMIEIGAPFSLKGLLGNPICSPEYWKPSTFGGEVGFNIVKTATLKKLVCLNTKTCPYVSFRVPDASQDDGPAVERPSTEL
Carbonic anhydrase 7 (Homo sapiens), sequence (P43166 whole entry): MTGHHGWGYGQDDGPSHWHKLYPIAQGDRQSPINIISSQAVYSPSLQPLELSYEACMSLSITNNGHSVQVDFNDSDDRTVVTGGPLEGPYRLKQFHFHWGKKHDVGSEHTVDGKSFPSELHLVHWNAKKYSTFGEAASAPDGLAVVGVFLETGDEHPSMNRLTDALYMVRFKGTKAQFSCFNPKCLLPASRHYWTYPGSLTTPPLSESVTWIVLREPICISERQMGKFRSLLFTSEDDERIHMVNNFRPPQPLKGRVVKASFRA
Carbonic anhydrase 12 (Homo sapiens), sequence (O43570 whole entry): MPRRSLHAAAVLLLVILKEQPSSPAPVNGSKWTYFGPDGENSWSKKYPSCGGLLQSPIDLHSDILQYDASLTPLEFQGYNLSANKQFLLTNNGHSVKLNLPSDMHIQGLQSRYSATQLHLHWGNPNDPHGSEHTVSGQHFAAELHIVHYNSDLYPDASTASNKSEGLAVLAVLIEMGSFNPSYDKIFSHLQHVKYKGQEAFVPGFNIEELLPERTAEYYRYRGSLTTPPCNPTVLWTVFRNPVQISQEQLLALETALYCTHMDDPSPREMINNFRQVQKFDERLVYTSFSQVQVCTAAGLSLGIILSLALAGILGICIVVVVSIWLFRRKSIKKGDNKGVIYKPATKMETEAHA

In general, inhibition refers to the drop in the measured response relative to a control, in per cent. Broadly, the half-life is how long it takes for the measured level to halve. As a reminder, the Ki is a measure of affinity in units of concentration, obtained from inhibition or displacement. High values mean a looser hold on the target, low ones a stronger hold on the target. For the compound `CC(C(=O)OCCOc1ccc2oc(=O)ccc2c1)c1cccc(C(=O)c2ccccc2)c1` (racemic), the Stability result in series [1] was “Stable”. For the same compound, in series [2], the inhibition at 5 min, 10 µM lay within 5 to 30%. The Activity entry is “<=53.8 g” in [3]; “<=64.4 g” in series [4]; “<=50 g” in series [5]; “Dose-dependent effect” in series [6]; 100% in series [9]; 49.4 g in [11]. Besides, in series [12], the Activity entry is “Dose-dependent effect”. The outcome in series [7] and in series [10] was inactive. Also, the outcome in series [8], in series [13], in series [14], in [15] and in series [16] was Active. The half-life in series [17] worked out at 31 min; in [18], 4.7 min. The Ki is 2.3 nM in series [19]; more than 10000 nM in [20]; more than 10000 nM in [21]; more than 10000 nM in series [22]; 36.9 nM in series [23]; 83.1 nM in series [24].
In the case of `O=c1ccc2cc(OCCO)ccc2o1`, the Activity in series [25] was determined as 51.7 g; in [26], 18.4 g. Besides, the outcome in series [27] was Active.
As to `CC(C(=O)OCCOc1ccc2ccc(=O)oc2c1)c1cccc(C(=O)c2ccccc2)c1` (racemic), the Stability entry in [1] is “Stable”. In [2], the inhibition at 5 min, 10 µM lay in the range of 5 to 30%. Also, in [28], the result was inactive. In addition, the solubility entry in [29] is “Insoluble”. The result in [30] was Active. In addition, the half-life turned out to be 12 min in series [17] and 2.1 min in [18]. In addition, the Ki is 6.7 nM in series [19]; more than 10000 nM in series [20]; more than 10000 nM in series [21]; more than 10000 nM in [22]; 35.4 nM in [23]; 55.4 nM in [24].
